Numbering of substitutions follows the chain as printed.
Assays:
LonP1 F547A/C576V = molecular target: T1, LonP1 F547A/C576V (Homo sapiens, UniProt P36776, C576V/F547A); test: Endpoint ATPase assay, LonP1 F547A/C576V; type: biochemical
T1 construct: hexa-histidine (N); made in house; host or cells: Rosetta 2 E. coli
T1 sequence (P36776 68-959 F547A/C576V): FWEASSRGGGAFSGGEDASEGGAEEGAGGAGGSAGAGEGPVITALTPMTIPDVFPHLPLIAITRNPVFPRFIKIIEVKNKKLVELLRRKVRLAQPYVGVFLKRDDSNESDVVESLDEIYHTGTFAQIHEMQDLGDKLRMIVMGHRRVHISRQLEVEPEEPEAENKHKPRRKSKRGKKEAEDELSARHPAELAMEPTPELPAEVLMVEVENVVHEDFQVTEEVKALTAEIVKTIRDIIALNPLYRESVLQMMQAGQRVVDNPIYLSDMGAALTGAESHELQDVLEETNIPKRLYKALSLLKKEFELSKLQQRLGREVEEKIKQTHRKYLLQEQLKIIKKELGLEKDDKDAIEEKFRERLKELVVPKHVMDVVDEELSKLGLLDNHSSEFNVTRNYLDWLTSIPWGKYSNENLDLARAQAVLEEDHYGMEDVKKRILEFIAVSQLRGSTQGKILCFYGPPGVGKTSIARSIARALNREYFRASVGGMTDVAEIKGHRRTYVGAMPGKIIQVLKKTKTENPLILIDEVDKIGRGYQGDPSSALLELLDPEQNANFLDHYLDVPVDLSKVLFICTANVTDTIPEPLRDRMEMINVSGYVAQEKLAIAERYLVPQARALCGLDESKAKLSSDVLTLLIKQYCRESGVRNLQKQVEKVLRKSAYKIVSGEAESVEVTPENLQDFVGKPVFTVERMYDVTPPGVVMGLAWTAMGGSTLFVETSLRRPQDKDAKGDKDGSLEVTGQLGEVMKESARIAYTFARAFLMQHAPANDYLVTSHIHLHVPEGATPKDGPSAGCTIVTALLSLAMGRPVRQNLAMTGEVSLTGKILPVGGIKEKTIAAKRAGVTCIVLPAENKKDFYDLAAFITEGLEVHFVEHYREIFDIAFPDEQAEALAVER
Experimental: (§1) Human mitochondrial LonP1 and mutants lacking the predicted mitochondrial targeting sequence were fused to an N-terminal hexa-histidine affinity tag, expressed in Rosetta 2 E. Coli, and purified using a nickel agarose column as previously described ([72]) and protein concentration and buffer exchange carried out using Amicon Ultra centrifugal filtration. LonP1 mutant constructs were obtained from the PCR-based QuikChange Site-Directed Mutagenesis Kit.
(§2) ADP-Glo (Promega) assays were performed according to the manufacturer's protocols. Purified wild-type or mutant LonP1 (400 nM monomer), the 26S proteasome (3 nM), or no enzyme controls were preincubated in 96-well plates (60 min, 25 °C) with ten different concentrations of CDDO and its derivatives, TP-82, enoxolone (5 μM) or DMSO vehicle control in buffer (40 mM Tris-HCl (pH 7.5), 20 mM MgCl2, 0.1 mg/ml BSA and 5% DMSO). The 26S and 20S proteasome were also assayed at 0, 0.75, 1.5, 3, 6, and 12 nM in the absence of CDDO derivatives. […] Assay reagents were used to quench further ATPase activity and generate luminescence signals proportional to the concentration of ADP formed. Background (no enzyme control) luminescence values were subtracted, and resultant values were reported as a percentage of the no drug control (100%). […]

LonP1 F547A = molecular target: T2, LonP1 F547A (Homo sapiens, UniProt P36776, F547A); test: Endpoint ATPase assay, LonP1 F547A; type: biochemical
T2 construct: hexa-histidine (N); made in house; host or cells: Rosetta 2 E. coli
T2 sequence (P36776 68-959 F547A): T1 sequence (P36776 68-959 F547A/C576V) with V509C
Experimental: as §1, §2

[1] = end-point ATPase assay, read-out: CDDO IC50

## CC1(C)CC[C@]2(C(=O)O)CC[C@]3(C)[C@H](C(=O)C=C4[C@@]5(C)C=C(C#N)C(=O)C(C)(C)[C@@H]5CC[C@]43C)[C@@H]2C1 [CDDO, 2-cyano-3,12-dioxooleana-1,9(11)-dien-28-oic acid]
LonP1 F547A/C576V
  Fold increase in inhibition compared with WT: 7.8
LonP1 F547A/C576V; [1]
  IC50: 1.8 ± 0.8 µM
LonP1 F547A
  Fold increase in inhibition compared with WT: 2.4
LonP1 F547A; [1]
  IC50: 5.9 ± 0.6 µM

Source: paper PMC8921294, “Inhibition of mitochondrial LonP1 protease by allosteric blockade of ATP binding and hydrolysis via CDDO and its derivatives” (The Journal of Biological Chemistry, 2022)
